Experimental data taken from patent US6737383B1, “Herbicidal oxadiazolidines” (priority 1999, dated 2004).

Columns and labels:
sugar beet = assay: Test B pre/postemergence sugar beet; type: in vivo, Beta vulgaris
Summary of the method: (§1)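 Test chemicals in a non-phytotoxic solvent mixture with surfactant were sprayed preemergence onto planted seeds and postemergence onto plants 2 to 18 cm tall (1- to 4-leaf stage). After twelve to sixteen days in a greenhouse, injury was visually rated against untreated controls from 0 (no effect) to 10 (complete control).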

pigweed = assay: Test B pre/postemergence pigweed; type: in vivo, Amaranthus retroflexus
Summary of the method: as §1

corn = assay: Test B pre/postemergence corn; type: in vivo, Zea mays
Summary of the method: as §1

morningglory = assay: Test B pre/postemergence morningglory; type: in vivo, Ipomoea hederacea
Summary of the method: as §1

wild oat = assay: Test B pre/postemergence wild oat; type: in vivo, Avena fatua
Summary of the method: as §1

surinam grass = assay: Test B pre/postemergence surinam grass; type: in vivo, Brachiaria decumbens
Summary of the method: as §1

cocklebur = assay: Test B pre/postemergence cocklebur; type: in vivo, Xanthium strumarium
Summary of the method: as §1

blackgrass = assay: Test B pre/postemergence blackgrass; type: in vivo, Alopecurus myosuroides
Summary of the method: as §1

velvetleaf = assay: Test B pre/postemergence velvetleaf; type: in vivo, Abutilon theophrasti
Summary of the method: as §1

purple nutsedge = assay: Test B pre/postemergence purple nutsedge; type: in vivo, Cyperus rotundus
Summary of the method: as §1

rape = assay: Test B pre/postemergence rape; type: in vivo, Brassica napus
Summary of the method: as §1

giant foxtail = assay: Test B pre/postemergence giant foxtail; type: in vivo, Setaria faberii
Summary of the method: as §1

bamyardgrass = assay: Test B flood test barnyardgrass; type: in vivo, Echinochloa crus-galli
Summary of the method: (§2)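 Plants were grown to the 2-leaf stage before treatment with test chemical, then held in a greenhouse for twelve to sixteen days. Injury was visually rated against untreated controls on a 0–10 scale, where 0 is no effect and 10 is complete control.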

soybean = assay: Test B pre/postemergence soybean; type: in vivo, Glycine max
Summary of the method: as §1

smallflower flatsedge = assay: Test B flood test smallflower flatsedge; type: in vivo, Cyperus difformis
Summary of the method: as §2

crabgrass = assay: Test B pre/postemergence crabgrass; type: in vivo, Digitaria sanguinalis
Summary of the method: as §1

[1] = Postemergence, Rate 125 g/ha, scale 0 to 10, 0 is no effect, 10 is complete control
[2] = Preemergence, Rate 62 g/ha, scale of 0 to 10 where 0 is no effect and 10 is complete control
[3] = Preemergence, Rate 250 g/ha, scale of 0 to 10 where 0 is no effect and 10 is complete control
[4] = Preemergence, Rate 500 g/ha, scale of 0 to 10 where 0 is no effect and 10 is complete control
[5] = Rate 62 g/ha, Postemergence, scale 0 to 10 (0 no effect, 10 complete control)
[6] = Rate 500 g/ha, Postemergence, scale 0 to 10, 0 no effect, 10 complete control
[7] = Rate 250 g/ha, Postemergence, scale of 0 to 10 where 0 is no effect and 10 is complete control
[8] = Rate 62 g/ha, headed Pre-emergence (flood test species), scale 0 to 10 (0 no effect, 10 complete control)
[9] = Rate 125 g/ha, Pre-emergence, flood test species, scale 0 to 10 where 0 is no effect and 10 is complete control
[10] = Rate 250 g/ha, Pre-emergence, flood-test species, scale 0 to 10, 0 is no effect, 10 is complete control
[11] = Rate 500 g/ha, Pre-emergence, flood test species, scale 0 to 10 (0 no effect, 10 complete control)

Cc1ccccc1-n1c(=O)on(C(=O)N(c2ccc(Cl)cc2)C(C)C2CC2)c1=O (centres unmarked) [Compound 330] was tested, and the “Plant response rating, Sugarbeets” value (sugar beet; [1]) was 0, the “Sugarbeets plant response rating” value (sugar beet; [2]) was 0 and the “Sugarbeets plant response rating (0 to 10 scale)” value (sugar beet; Preemergence, Rate 125 g/ha) was 0. The “Sugarbeets plant response rating” value (sugar beet; [3]) was 0, the “Sugarbeets plant response rating” value (sugar beet; [4]) was 0 and the “Sugarbeets plant response rating” value (sugar beet; [5]) was 0. The “Plant response rating, Sugarbeets” value (sugar beet; [6]) was 0, the “Plant response rating, Redroot pigweed” value (pigweed; [1]) was 0 and the “Redroot pigweed plant response rating” value (pigweed; [2]) was 0. The “Redroot pigweed plant response rating (0 to 10 scale)” value (pigweed; Preemergence, Rate 125 g/ha) was 0, the “Redroot pigweed plant response rating” value (pigweed; [3]) was 0 and the “Redroot pigweed plant response rating” value (pigweed; [4]) was 0. For the same compound, the “Redroot pigweed plant response rating” value (pigweed; [5]) was 0, the “Plant response rating, Redroot pigweed” value (pigweed; [6]) was 0 and the “Plant response rating, Corn” value (corn; [1]) was 0. The “Corn plant response rating” value (corn; [2]) was 0, the “Corn plant response rating (0 to 10 scale)” value (corn; Preemergence, Rate 125 g/ha) was 0 and the “Corn plant response rating” value (corn; [3]) was 0. The “Corn plant response rating” value (corn; [4]) was 0, the “Corn plant response rating” value (corn; [5]) was 0 and the “Plant response rating, Corn” value (corn; [6]) was 0. For the same compound, the “Plant response rating, Morningglory” value (morningglory; [1]) was 0, the “Morningglory plant response rating” value (morningglory; [2]) was 0 and the “Morningglory plant response rating (0 to 10 scale)” value (morningglory; Preemergence, Rate 125 g/ha) was 0. For the same compound, the “Morningglory plant response rating” value (morningglory; [3]) was 0, the “Morningglory plant response rating” value (morningglory; [4]) was 0 and the “Morningglory plant response rating” value (morningglory; [5]) was 0. The “Plant response rating, Morningglory” value (morningglory; [6]) was 4, the “Plant response rating, Wild oats” value (wild oat; [1]) was 0 and the “Wild oats plant response rating” value (wild oat; [2]) was 0. The “Wild oats plant response rating (0 to 10 scale)” value (wild oat; Preemergence, Rate 125 g/ha) was 0, the “Wild oats plant response rating” value (wild oat; [3]) was 0 and the “Wild oats plant response rating” value (wild oat; [4]) was 0. The “Wild oats plant response rating” value (wild oat; [5]) was 0, the “Plant response rating, Wild oats” value (wild oat; [6]) was 0 and the “Plant response rating, B. signalgrass” value (surinam grass; [1]) was 0. For the same compound, the “B. signalgrass plant response rating” value (surinam grass; [2]) was 0, the “B. signalgrass plant response rating (0 to 10 scale, 0 is no effect, 10 is complete control)” value (surinam grass; Preemergence, Rate 125 g/ha) was 0 and the “B. signalgrass plant response rating” value (surinam grass; [3]) was 0. The “B. signalgrass plant response rating” value (surinam grass; [4]) was 0, the “B. signalgrass plant response rating” value (surinam grass; [5]) was 0 and the “Plant response rating, B. signalgrass” value (surinam grass; [7]) was 0. The “Plant response rating, B. signalgrass” value (surinam grass; [6]) was 0, the “Plant response rating, Cocklebur” value (cocklebur; [1]) was 0 and the “Cocklebur plant response rating” value (cocklebur; [2]) was 0. The “Cocklebur plant response rating (0 to 10 scale)” value (cocklebur; Preemergence, Rate 125 g/ha) was 0, the “Cocklebur plant response rating” value (cocklebur; [3]) was 0 and the “Cocklebur plant response rating” value (cocklebur; [4]) was 0. For the same compound, the “Cocklebur plant response rating” value (cocklebur; [5]) was 0, the “Plant response rating, Cocklebur” value (cocklebur; [6]) was 0 and the “Plant response rating, Blackgrass” value (blackgrass; [1]) was 0. The “Blackgrass plant response rating” value (blackgrass; [2]) was 0, the “Blackgrass plant response rating (0 to 10 scale)” value (blackgrass; Preemergence, Rate 125 g/ha) was 0 and the “Blackgrass plant response rating” value (blackgrass; [3]) was 0. The “Blackgrass plant response rating” value (blackgrass; [5]) was 0, the “Plant response rating, Blackgrass” value (blackgrass; [7]) was 0 and the “Plant response rating, Blackgrass” value (blackgrass; [6]) was 0. For the same compound, the “Plant response rating, Velvetleaf” value (velvetleaf; [1]) was 0, the “Velvetleaf plant response rating” value (velvetleaf; [2]) was 0 and the “Velvetleaf plant response rating (0 to 10 scale)” value (velvetleaf; Preemergence, Rate 125 g/ha) was 0. The “Velvetleaf plant response rating” value (velvetleaf; [3]) was 0, the “Velvetleaf plant response rating” value (velvetleaf; [4]) was 0 and the “Velvetleaf plant response rating” value (velvetleaf; [5]) was 0. The “Plant response rating, Velvetleaf” value (velvetleaf; [6]) was 0, the “Plant response rating, Nutsedge” value (purple nutsedge; [1]) was 0 and the “Nutsedge plant response rating” value (purple nutsedge; [2]) was 0. For the same compound, the “Nutsedge plant response rating (0 to 10 scale)” value (purple nutsedge; Preemergence, Rate 125 g/ha) was 0, the “Nutsedge plant response rating” value (purple nutsedge; [3]) was 0 and the “Nutsedge plant response rating” value (purple nutsedge; [4]) was 0. For the same compound, the “Nutsedge plant response rating” value (purple nutsedge; [5]) was 0, the “Plant response rating, Nutsedge” value (purple nutsedge; [6]) was 0 and the “Plant response rating, Rape” value (rape; [1]) was 0. For the same compound, the “Rape plant response rating” value (rape; [2]) was 0, the “Rape plant response rating (0 to 10 scale)” value (rape; Preemergence, Rate 125 g/ha) was 0 and the “Rape plant response rating” value (rape; [3]) was 0. The “Rape plant response rating” value (rape; [4]) was 0, the “Rape plant response rating” value (rape; [5]) was 0 and the “Plant response rating, Rape” value (rape; [6]) was 0. For the same compound, the “Plant response rating, Giant foxtail” value (giant foxtail; [1]) was 0, the “Giant foxtail plant response rating” value (giant foxtail; [2]) was 0 and the “Giant foxtail plant response rating (0 to 10 scale)” value (giant foxtail; Preemergence, Rate 125 g/ha) was 0. For the same compound, the “Giant foxtail plant response rating” value (giant foxtail; [3]) was 0, the “Giant foxtail plant response rating” value (giant foxtail; [4]) was 0 and the “Giant foxtail plant response rating” value (giant foxtail; [5]) was 0. For the same compound, the “Plant response rating, Giant foxtail” value (giant foxtail; [6]) was 0, the “Barnyardgrass plant response rating” value (bamyardgrass; [8]) was 0 and the “Barnyardgrass plant response rating” value (bamyardgrass; [9]) was 0. The “Barnyardgrass plant response rating” value (bamyardgrass; [10]) was 0, the “Barnyardgrass plant response rating” value (bamyardgrass; [11]) was 0 and the “Plant response rating, Soybean” value (soybean; [1]) was 1. The “Soybean plant response rating” value (soybean; [2]) was 0, the “Soybean plant response rating (0 to 10 scale)” value (soybean; Preemergence, Rate 125 g/ha) was 0 and the “Soybean plant response rating” value (soybean; [3]) was 0. For the same compound, the “Soybean plant response rating” value (soybean; [4]) was 0, the “Soybean plant response rating” value (soybean; [5]) was 1 and the “Plant response rating, Soybean” value (soybean; [6]) was 1. The “S. Flatsedge plant response rating” value (smallflower flatsedge; [8]) was 0, the “S. Flatsedge plant response rating” value (smallflower flatsedge; [9]) was 0 and the “S. Flatsedge plant response rating” value (smallflower flatsedge; [10]) was 0. The “S. Flatsedge plant response rating” value (smallflower flatsedge; [11]) was 0, the “Plant response rating, Crabgrass” value (crabgrass; [1]) was 0 and the “Crabgrass plant response rating” value (crabgrass; [2]) was 0. The “Crabgrass plant response rating (0 to 10 scale)” value (crabgrass; Preemergence, Rate 125 g/ha) was 0, the “Crabgrass plant response rating” value (crabgrass; [3]) was 0 and the “Crabgrass plant response rating” value (crabgrass; [4]) was 0. The “Crabgrass plant response rating” value (crabgrass; [5]) was 0 and the “Plant response rating, Crabgrass” value (crabgrass; [6]) was 0.
